Laboratory results taken from EP1925205A1, “Plant propagation material treatment nematicides” (priority 2006, dated 2008).
Where “and” joins values, the source holds several entries; their conditions need not be identical. Identical values can stand only once. Like-named read-outs stand apart in the source and are kept apart here.

What was measured:
Type in all cases: in vivo, Meloidogyne incognita
M. incognita [1] = details: for Efficacy (%): DS formulation, inoculated 14 days after sowing, galling 28 days after inoculation; for average rating (gall rating, score 0.1-7): tomato, untreated control 4.1
M. incognita [2] = assay: Example 6: nematode control by cotton seed treatment, root galling (index adapted from Zeck); details: for Efficacy (%): cotton seeds, DS formulation, inoculated 14 days after sowing, galling 28 days after inoculation; for average rating (gall rating, score 0.1-7): cotton, untreated control 2.0
Meloidogyne spp. = assay: General statement of effectiveness against nematodes by plant propagation material treatment
M. incognita [3] = assay: Example 4: nematode control by tomato seed treatment, root galling (index adapted from Zeck); details: for Efficacy (%) / germination of treated seeds: tomato seeds; for Efficacy (%): Methiocarb FS500, Thiodicarb DS, inoculated 14 days after sowing, galling 28 days after inoculation; for average rating (gall rating, score 0.1-7): tomato, untreated control 4.3; for germination of treated seeds: FS500 formulation
M. incognita [4] = assay: Example 5: nematode control by tomato seed treatment, root galling (index adapted from Zeck); details: for Efficacy (%): tomato seeds, DS formulation, inoculated 14 days after sowing, galling 28 days after inoculation
M. incognita [5] = assay: Example 1: nematode control by tomato seed treatment, root galling (index adapted from Zeck), two exposure timings; details: for Efficacy (%) at the two-week exposure / Efficacy (%) at the four-week exposure: tomato seeds, DS formulation, galling 28 days after inoculation; for Efficacy (%) at the two-week exposure: inoculated 14 days after sowing, 6000 eggs; for Efficacy (%) at the four-week exposure: inoculated 28 days after sowing, 9000 eggs; for average rating (gall rating, score 0.1-7): tomato
M. incognita [6] = details: for Efficacy (%): DS formulation, inoculated 14 days after sowing, galling 28 days after inoculation; for average rating (gall rating, score 0.1-7): tomato, untreated control 4.6
[7] = tomato seeds, 0.01 mg a.i./seed
[8] = tomato seeds, 0.03 mg a.i./seed
[9] = 1 mg a.i./seed, inoculated at 14 days after sowing, untreated control 3.5
[10] = 1 mg a.i./seed, inoculated at 28 days after sowing, untreated control 2.9

CCOP(=O)(SC(C)CC)SC(C)CC (stereo not drawn) [Cadusafos]
germination of treated seeds (M. incognita [1]; tomato seeds, 1 mg a.i./seed): did not germinate
Efficacy (%) (M. incognita [1]; [7]): 0%
Efficacy (%) (M. incognita [1]; [8]): 0%
Efficacy (%) (M. incognita [1]; tomato seeds, 0.1 mg a.i./seed): 2.0%
Efficacy (%) (M. incognita [1]; tomato seeds, 0.3 mg a.i./seed): 14.3%
average rating (gall rating, score 0.1-7) (M. incognita [1]; 0.3 mg /seed): 3.5
Efficacy (%) (M. incognita [2]; 0.01 mg a.i./seed): 0%
Efficacy (%) (M. incognita [2]; 0.03 mg a.i./seed): 0%
Efficacy (%) (M. incognita [2]; 0.1 mg a.i./seed): 8.3%
Efficacy (%) (M. incognita [2]; 0.3 mg a.i./seed): 77.5%
Efficacy (%) (M. incognita [2]; 1 mg a.i./seed): 86.7%
average rating (gall rating, score 0.1-7) (M. incognita [2]; 0.3 mg /seed): 0.5
average rating (gall rating, score 0.1-7) (M. incognita [2]; 1 mg a.i./seed): 0.3
effective against Meloidogyne spp., for example, Meloidogyne incognita (Meloidogyne spp.): effective

CS/C(C)=N\OC(=O)N(C)SN(C)C(=O)O/N=C(\C)SC [Thiodicarb]
Efficacy (%) (M. incognita [3]; 0.03 mg a.i./seed): 0%
Efficacy (%) (M. incognita [3]; 0.1 mg a.i./seed): 0%
Efficacy (%) (M. incognita [3]; 0.3 mg a.i./seed): 0%
Efficacy (%) (M. incognita [3]; 1 mg a.i./seed): 1.9%
average rating (gall rating, score 0.1-7) (M. incognita [3]; 1 mg a.i./seed): 4.3

CCCCNC(=O)n1c(NC(=O)OC)nc2ccccc21 [Benomyl]
Efficacy (%) (M. incognita [4]; 0.1 mg a.i./seed): 0%
Efficacy (%) (M. incognita [4]; 0.3 mg a.i./seed): 2.0%
Efficacy (%) (M. incognita [4]; 1 mg a.i./seed): 0%
average rating (gall rating, score 0.1-7) (M. incognita [4]; tomato, 1 mg a.i./seed, untreated control 4.2): The untreated control plants have an average rating of 4.2. Benomyl at 1 mg a.i. /seed is also rated at 4.2.

CNC(=O)CSP(=S)(OC)OC [Dimethoate]
Efficacy (%) (M. incognita [1]; [7]): 0%
Efficacy (%) (M. incognita [1]; [8]): 2.0%
Efficacy (%) (M. incognita [1]; tomato seeds, 0.1 mg a.i./seed): 2.0%
Efficacy (%) (M. incognita [1]; tomato seeds, 0.3 mg a.i./seed): 0%
Efficacy (%) (M. incognita [1]; tomato seeds, 1 mg a.i./seed): 0%
average rating (gall rating, score 0.1-7) (M. incognita [1]; 1 mg /seed): 4.3

CCOP(=S)(OCC)SCSC(C)(C)C [Terbufos]
Efficacy (%) (M. incognita [1]; [7]): 0%
Efficacy (%) (M. incognita [1]; [8]): 0%
Efficacy (%) (M. incognita [1]; tomato seeds, 0.1 mg a.i./seed): 0%
Efficacy (%) (M. incognita [1]; tomato seeds, 0.3 mg a.i./seed): 0%
Efficacy (%) (M. incognita [1]; tomato seeds, 1 mg a.i./seed): 0%
average rating (gall rating, score 0.1-7) (M. incognita [1]; 1 mg /seed): 4.1

CCN(CC)C(=O)C(Cl)=C(C)OP(=O)(OC)OC [Phosphamidon]
Efficacy (%) (M. incognita [1]; [7]): 0%
Efficacy (%) (M. incognita [1]; [8]): 2.0%
Efficacy (%) (M. incognita [1]; tomato seeds, 0.1 mg a.i./seed): 0%
Efficacy (%) (M. incognita [1]; tomato seeds, 0.3 mg a.i./seed): 0%
Efficacy (%) (M. incognita [1]; tomato seeds, 1 mg a.i./seed): 0%
average rating (gall rating, score 0.1-7) (M. incognita [1]; 1 mg /seed): 4.1

CNC(=O)O/N=C(\SC)C(=O)N(C)C [Oxamyl]
Efficacy (%) at the two-week exposure (M. incognita [5]; 0.03 mg a.i./seed): 7.1%
Efficacy (%) at the four-week exposure (M. incognita [5]; 0.03 mg a.i./seed): 0%
Efficacy (%) at the two-week exposure (M. incognita [5]; 0.1 mg a.i./seed): 0%
Efficacy (%) at the four-week exposure (M. incognita [5]; 0.1 mg a.i./seed): 2.9%
Efficacy (%) at the two-week exposure (M. incognita [5]; 0.3 mg a.i./seed): 0%
Efficacy (%) at the four-week exposure (M. incognita [5]; 0.3 mg a.i./seed): 0%
Efficacy (%) at the two-week exposure (M. incognita [5]; 1 mg a.i./seed): 0%
Efficacy (%) at the four-week exposure (M. incognita [5]; 1 mg a.i./seed): 4.5%
average rating (gall rating, score 0.1-7) (M. incognita [5]; [9]): 3.5
average rating (gall rating, score 0.1-7) (M. incognita [5]; [10]): 2.8

CCOP(=S)(OCC)Oc1nc(Cl)c(Cl)cc1Cl [Chlorpyrifos]
Efficacy (%) (M. incognita [1]; [7]): 0%
Efficacy (%) (M. incognita [1]; [8]): 0%
Efficacy (%) (M. incognita [1]; tomato seeds, 0.1 mg a.i./seed): 0%
Efficacy (%) (M. incognita [1]; tomato seeds, 0.3 mg a.i./seed): 0%
Efficacy (%) (M. incognita [1]; tomato seeds, 1 mg a.i./seed): 0%
average rating (gall rating, score 0.1-7) (M. incognita [1]; 1 mg /seed): 4.3

CCOP(=S)(OCC)SCSCC [Phorate]
Efficacy (%) (M. incognita [6]; [8]): 22.1%
Efficacy (%) (M. incognita [6]; tomato seeds, 0.1 mg a.i./seed): 2.2%
Efficacy (%) (M. incognita [6]; tomato seeds, 0.3 mg a.i./seed): 2.2%
Efficacy (%) (M. incognita [6]; tomato seeds, 1 mg a.i./seed): 5.8%
average rating (gall rating, score 0.1-7) (M. incognita [6]; 1 mg /seed): 4.3

CNC(=O)Oc1cc(C)c(SC)c(C)c1 [Methiocarb]
Efficacy (%) (M. incognita [3]; 0.01 mg a.i./seed): 3.8%
Efficacy (%) (M. incognita [3]; 0.03 mg a.i./seed): 3.8%
Efficacy (%) (M. incognita [3]; 0.1 mg a.i./seed): 1.9%
germination of treated seeds (M. incognita [3]; 0.3 mg /seed): only 1 seed out of 6 germinated
Efficacy (%) (M. incognita [3]; 0.3 mg a.i./seed): 0%
germination of treated seeds (M. incognita [3]; 1 mg a.i./seed): did not germinate
average rating (gall rating, score 0.1-7) (M. incognita [3]; 0.1 mg /seed): 4.3
average rating (gall rating, score 0.1-7) (M. incognita [3]; 0.3 mg /seed, only one germinated plant): 4.5

CCOP(=S)(OCC)Oc1ccc(Cl)cc1Cl [Dichlofenthion]
Efficacy (%) (M. incognita [1]; [7]): 0%
Efficacy (%) (M. incognita [1]; [8]): 0%
Efficacy (%) (M. incognita [1]; tomato seeds, 0.1 mg a.i./seed): 0%
Efficacy (%) (M. incognita [1]; tomato seeds, 0.3 mg a.i./seed): 0%
Efficacy (%) (M. incognita [1]; tomato seeds, 1 mg a.i./seed): 0%
average rating (gall rating, score 0.1-7) (M. incognita [1]; 1 mg /seed): 4.7

CNC(=O)O/N=C/C(C)(C)SC [Aldicarb]
Efficacy (%) (M. incognita [6]; [8]): 5.8%
Efficacy (%) (M. incognita [6]; tomato seeds, 0.1 mg a.i./seed): 5.8%
Efficacy (%) (M. incognita [6]; tomato seeds, 0.3 mg a.i./seed): 11.2%
Efficacy (%) (M. incognita [6]; tomato seeds, 1 mg a.i./seed): 16.7%
average rating (gall rating, score 0.1-7) (M. incognita [6]; 1 mg /seed): 3.8
effective against Meloidogyne spp., for example, Meloidogyne incognita (Meloidogyne spp.): effective

CCOP(=O)(SC(C)CC)N1CCSC1=O (stereo not drawn) [Fosthiazate]
effective against Meloidogyne spp., for example, Meloidogyne incognita (Meloidogyne spp.): effective
Efficacy (%) at the two-week exposure (M. incognita [5]; 0.03 mg a.i./seed): 0%
Efficacy (%) at the four-week exposure (M. incognita [5]; 0.03 mg a.i./seed): 0%
Efficacy (%) at the two-week exposure (M. incognita [5]; 0.1 mg a.i./seed): 40%
Efficacy (%) at the four-week exposure (M. incognita [5]; 0.1 mg a.i./seed): 0%
Efficacy (%) at the two-week exposure (M. incognita [5]; 0.3 mg a.i./seed): 28.6%
Efficacy (%) at the four-week exposure (M. incognita [5]; 0.3 mg a.i./seed): 10.9%
Efficacy (%) at the two-week exposure (M. incognita [5]; 1 mg a.i./seed): 59% and 59.4%
Efficacy (%) at the four-week exposure (M. incognita [5]; 1 mg a.i./seed): 40%
average rating (gall rating, score 0.1-7) (M. incognita [5]; [9]): 1.4
average rating (gall rating, score 0.1-7) (M. incognita [5]; [10]): 1.8

CCOP(=S)(OCC)Oc1nc(Cl)n(C(C)C)n1 [Isazofos]
Efficacy (%) (M. incognita [6]; [8]): 4.0%
Efficacy (%) (M. incognita [6]; tomato seeds, 0.1 mg a.i./seed): 2.2%
Efficacy (%) (M. incognita [6]; tomato seeds, 0.3 mg a.i./seed): 34.8%
Efficacy (%) (M. incognita [6]; tomato seeds, 1 mg a.i./seed): 87.0%
average rating (gall rating, score 0.1-7) (M. incognita [6]; 1 mg /seed): 0.6
effective against Meloidogyne spp., for example, Meloidogyne incognita (Meloidogyne spp.): effective

CCOP(=S)(OCC)Oc1ccc([S+](C)[O-])cc1 (stereo not drawn) [Fensulfothion]
Efficacy (%) (M. incognita [1]; [7]): 0%
Efficacy (%) (M. incognita [1]; [8]): 2.0%
Efficacy (%) (M. incognita [1]; tomato seeds, 0.1 mg a.i./seed): 0%
Efficacy (%) (M. incognita [1]; tomato seeds, 0.3 mg a.i./seed): 0%
Efficacy (%) (M. incognita [1]; tomato seeds, 1 mg a.i./seed): 20.4%
average rating (gall rating, score 0.1-7) (M. incognita [1]; 1 mg /seed): 3.3
effective against Meloidogyne spp., for example, Meloidogyne incognita (Meloidogyne spp.): effective

CCCSP(=O)(OCC)SCCC [Ethoprofos, Ethoprophos]
germination of treated seeds (M. incognita [6]; tomato seeds, 1 mg a.i./seed): did not germinate
Efficacy (%) (M. incognita [6]; [8]): 4.0%
Efficacy (%) (M. incognita [6]; tomato seeds, 0.1 mg a.i./seed): 2.2%
Efficacy (%) (M. incognita [6]; tomato seeds, 0.3 mg a.i./seed): 2.2%
average rating (gall rating, score 0.1-7) (M. incognita [6]; 0.3 mg /seed): 4.5

CCOP(=S)(OCC)Oc1cc(C)nc(C(C)C)n1 [Diazinon]
Efficacy (%) (M. incognita [1]; [7]): 0%
Efficacy (%) (M. incognita [1]; [8]): 0%
Efficacy (%) (M. incognita [1]; tomato seeds, 0.1 mg a.i./seed): 0%
Efficacy (%) (M. incognita [1]; tomato seeds, 0.3 mg a.i./seed): 0%
Efficacy (%) (M. incognita [1]; tomato seeds, 1 mg a.i./seed): 0%
average rating (gall rating, score 0.1-7) (M. incognita [1]; 1 mg /seed): 4.2
